For test [1], the target named is Polyprotein P1234 (Chikungunya virus (strain S27-African prototype) (CHIKV)) (UniProt Q8JUX6). The test is described as follows: Inhibition of CHIKV nsP2 protease at 1 mM by FRET assay relative to control.
In the next test the target is Polyprotein P1234 (Chikungunya virus (strain S27-African prototype) (CHIKV), UniProt Q8JUX6). Briefly: Inhibition of CHIKV nsP2 protease by FRET assay.
Test [2] concerns the target Polyprotein P1234 (Chikungunya virus (strain S27-African prototype) (CHIKV)) (UniProt Q8JUX6). Briefly: Irreversible binding affinity to CHIKV nsP2 protease at 10 uM preincubated with compound followed by 100 fold dilution and subsequent addition of substrate by jump-dilution assay.
Test [3] has the same target. The test is described as follows: Reversible binding affinity to CHIKV nsP2 protease at 10 uM preincubated with compound followed by 100 fold dilution and subsequent addition of substrate by jump-dilution assay.
For test [4] the target is unchanged. The test is described as follows: Binding affinity to CHIKV nsP2 protease assessed as covalent modification by mass spectrometry.
For test [5], the target named is Replicase polyprotein 1ab (Severe acute respiratory syndrome coronavirus 2) (UniProt P0DTD1). The test is described as follows: Inhibition of SARS-CoV-2 PLpro at 1 mM by FRET analysis.
Test [6] addresses Polyprotein P1234 (Sindbis virus) (UniProt P03317). The test is described as follows: Inhibition of SINV nsP2pro at 1 mM by FRET analysis.

SMILES strings stand for the structures. Activity calls are given as the source filed them. No cut-off for these calls is given here.

Polyprotein P1234 (Chikungunya virus (strain S27-African prototype) (CHIKV)), sequence (Q8JUX6 whole entry): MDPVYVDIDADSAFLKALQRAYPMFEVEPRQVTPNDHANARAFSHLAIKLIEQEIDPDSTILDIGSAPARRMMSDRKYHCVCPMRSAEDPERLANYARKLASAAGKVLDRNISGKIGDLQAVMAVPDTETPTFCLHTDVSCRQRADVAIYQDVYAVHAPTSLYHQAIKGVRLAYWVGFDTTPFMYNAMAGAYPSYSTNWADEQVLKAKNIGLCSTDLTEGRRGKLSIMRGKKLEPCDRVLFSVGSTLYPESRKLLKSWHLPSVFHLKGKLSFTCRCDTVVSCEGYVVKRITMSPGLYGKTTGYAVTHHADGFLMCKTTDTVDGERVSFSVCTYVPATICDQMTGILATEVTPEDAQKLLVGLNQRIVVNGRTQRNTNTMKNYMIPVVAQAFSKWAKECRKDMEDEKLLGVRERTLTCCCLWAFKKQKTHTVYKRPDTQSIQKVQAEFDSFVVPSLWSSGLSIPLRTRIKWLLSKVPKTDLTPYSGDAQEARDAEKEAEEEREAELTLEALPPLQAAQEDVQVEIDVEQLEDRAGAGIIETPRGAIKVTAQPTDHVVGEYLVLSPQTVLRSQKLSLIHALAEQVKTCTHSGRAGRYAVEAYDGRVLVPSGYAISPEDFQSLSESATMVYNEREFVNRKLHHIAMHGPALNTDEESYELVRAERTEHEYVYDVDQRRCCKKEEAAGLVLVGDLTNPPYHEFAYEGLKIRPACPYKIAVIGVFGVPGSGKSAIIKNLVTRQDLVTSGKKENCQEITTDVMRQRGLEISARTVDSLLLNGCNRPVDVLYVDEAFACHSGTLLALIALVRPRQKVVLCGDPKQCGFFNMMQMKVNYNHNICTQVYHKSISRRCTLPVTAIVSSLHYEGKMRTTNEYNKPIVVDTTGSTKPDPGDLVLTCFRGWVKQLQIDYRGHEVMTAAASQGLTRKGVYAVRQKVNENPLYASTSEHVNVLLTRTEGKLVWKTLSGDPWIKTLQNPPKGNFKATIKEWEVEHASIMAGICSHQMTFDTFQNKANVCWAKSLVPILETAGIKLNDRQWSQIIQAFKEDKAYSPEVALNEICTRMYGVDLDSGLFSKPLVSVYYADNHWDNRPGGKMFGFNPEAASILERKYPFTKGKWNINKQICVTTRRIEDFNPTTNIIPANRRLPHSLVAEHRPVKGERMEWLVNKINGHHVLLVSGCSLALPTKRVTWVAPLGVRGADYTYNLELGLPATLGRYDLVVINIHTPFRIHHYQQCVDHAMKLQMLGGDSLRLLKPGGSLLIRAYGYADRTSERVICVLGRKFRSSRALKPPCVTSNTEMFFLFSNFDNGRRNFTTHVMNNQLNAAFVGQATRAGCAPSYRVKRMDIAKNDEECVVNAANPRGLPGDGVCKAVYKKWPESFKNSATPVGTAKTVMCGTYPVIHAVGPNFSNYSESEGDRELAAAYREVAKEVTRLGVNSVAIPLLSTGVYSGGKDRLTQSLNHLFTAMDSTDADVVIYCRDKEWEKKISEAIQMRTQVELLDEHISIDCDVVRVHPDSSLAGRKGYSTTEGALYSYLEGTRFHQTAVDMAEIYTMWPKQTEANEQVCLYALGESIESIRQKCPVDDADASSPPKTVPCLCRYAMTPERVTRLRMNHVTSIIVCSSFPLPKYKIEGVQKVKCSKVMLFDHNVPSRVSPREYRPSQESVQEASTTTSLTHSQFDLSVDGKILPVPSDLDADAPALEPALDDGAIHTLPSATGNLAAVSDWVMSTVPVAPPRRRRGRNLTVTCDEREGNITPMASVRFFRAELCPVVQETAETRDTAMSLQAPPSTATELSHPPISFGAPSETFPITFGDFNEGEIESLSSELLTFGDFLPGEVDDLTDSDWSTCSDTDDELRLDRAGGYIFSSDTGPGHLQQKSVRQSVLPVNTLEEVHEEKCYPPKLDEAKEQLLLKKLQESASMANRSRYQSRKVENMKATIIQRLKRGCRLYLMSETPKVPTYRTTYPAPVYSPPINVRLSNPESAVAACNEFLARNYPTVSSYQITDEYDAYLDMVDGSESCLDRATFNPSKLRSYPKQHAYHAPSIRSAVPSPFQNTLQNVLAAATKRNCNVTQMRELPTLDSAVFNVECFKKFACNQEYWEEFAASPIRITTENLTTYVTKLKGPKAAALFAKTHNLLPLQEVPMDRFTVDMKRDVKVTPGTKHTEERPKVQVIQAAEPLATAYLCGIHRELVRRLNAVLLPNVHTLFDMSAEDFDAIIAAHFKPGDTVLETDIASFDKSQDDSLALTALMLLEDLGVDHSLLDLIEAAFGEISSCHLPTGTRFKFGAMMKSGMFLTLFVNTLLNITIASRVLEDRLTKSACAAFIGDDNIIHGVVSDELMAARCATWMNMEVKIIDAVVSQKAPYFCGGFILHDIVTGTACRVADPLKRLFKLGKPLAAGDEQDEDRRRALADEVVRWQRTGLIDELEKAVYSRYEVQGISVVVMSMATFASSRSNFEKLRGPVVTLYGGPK
Polyprotein P1234, sequence (Q8JUX6 536-1333 limits assumed): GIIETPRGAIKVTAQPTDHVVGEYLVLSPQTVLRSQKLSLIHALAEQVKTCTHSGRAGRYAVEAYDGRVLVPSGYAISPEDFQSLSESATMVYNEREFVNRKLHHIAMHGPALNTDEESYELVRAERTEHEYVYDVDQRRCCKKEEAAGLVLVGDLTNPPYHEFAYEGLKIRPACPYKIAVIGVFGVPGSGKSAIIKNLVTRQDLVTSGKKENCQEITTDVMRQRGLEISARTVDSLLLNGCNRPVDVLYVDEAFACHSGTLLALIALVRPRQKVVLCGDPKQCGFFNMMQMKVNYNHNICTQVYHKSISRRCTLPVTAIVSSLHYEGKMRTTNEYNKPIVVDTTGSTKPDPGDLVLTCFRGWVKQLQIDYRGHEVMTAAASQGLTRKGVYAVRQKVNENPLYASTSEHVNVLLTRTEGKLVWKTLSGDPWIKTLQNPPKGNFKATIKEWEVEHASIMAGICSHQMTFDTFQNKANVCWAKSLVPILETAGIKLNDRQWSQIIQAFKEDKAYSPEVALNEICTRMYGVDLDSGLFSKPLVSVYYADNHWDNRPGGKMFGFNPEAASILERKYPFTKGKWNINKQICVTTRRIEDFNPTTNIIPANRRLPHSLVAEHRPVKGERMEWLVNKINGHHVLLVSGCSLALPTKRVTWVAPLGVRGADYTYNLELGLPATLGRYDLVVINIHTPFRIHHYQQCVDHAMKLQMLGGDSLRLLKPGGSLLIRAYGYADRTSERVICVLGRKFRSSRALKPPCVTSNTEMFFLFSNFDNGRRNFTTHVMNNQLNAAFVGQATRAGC

The term inhibition denotes the drop in the measured response relative to a control, in per cent. Usually IC50 stands for the concentration that inhibits the measured activity by half. Consider `C=CC(=O)NCc1cccc(C(F)(F)F)c1`, for which the inhibition in test [1] is over 40%. On Polyprotein P1234, the concentration for half-maximal inhibition (IC50) was determined as 1300 µM. For the same molecule, in test [2], the result was Active. As for `C=CC(=O)NCc1ccc2c(c1)OCO2`, in test [1], the inhibition was under 40%.

`C=CC(=O)NC1CCCCC1` came in with an inhibition in test [1] of under 40%. Same read-out and setting: as for `C=CC(=O)NCCc1ccc(O)cc1`, the figure is under 40%; as for `C=CC(=O)NCCc1c[nH]c2ccccc12`, over 40%.

As to `C=CC(=O)Nc1ccc([N+](=O)[O-])cc1`, in test [1], the inhibition turned out to be 100%. Still for that read-out and setting: the result for `C=CC(=O)NCc1ccc(Cl)cc1` reads under 40%. Molecule `C=CC(=O)Nc1ccc(I)cc1` displayed an inhibition in test [1] of over 40%.

`C=CC(=O)N1CCN(C(=O)OC(C)(C)C)CC1`: the inhibition in test [1] is under 40%.

Molecule `C=CC(=O)N(C)Cc1ccccc1` yielded an inhibition in test [1] of under 40%. On the same count and under the same terms, as for `C=CC(=O)N[C@H]1CCc2ccccc21`, the figure is under 40%; as for `C=CC(=O)Nc1c(CC(C)C)cccc1CC(C)C`, under 40%. With `C=CC(=O)NCCc1ccccc1`, in test [1], the inhibition was under 40%.

Molecule `C=CC(=O)N[C@@H]1CCCC[C@H]1NC(=O)C=C` registered an inhibition in test [1] of under 40%.

Take `C=CC(=O)Nc1ccc(OC)c(O)c1`: in test [1], the inhibition is over 40%. The molecule `CCC(=O)Nc1ccc(Br)cc1` registered an inhibition in test [1] of under 40%. In addition, the outcome in test [3] was Active.

`C=CC(=O)NCc1ccc(C(F)(F)F)cc1` registered an inhibition in test [1] of under 40%. In test [1], `CCC(=O)NCc1cccc(C(F)(F)F)c1` yielded an inhibition of under 40%. Besides, in test [3], the result was Active. Molecule `C=CC(=O)N(C(C)C)C1CCCCC1` gave an inhibition in test [1] of under 40%. Still for that read-out and setting: the result for `C=CC(=O)Nc1ccccc1` reads under 40%; that for `C=CC(=O)NCc1ccc(C(C)(C)C)cc1`, under 40%; that for `C=CC(=O)Nc1cccc(C)c1C`, under 40%. On the same count and under the same terms, the result for `C=CC(=O)Nc1ccc(OC)cc1` reads under 40%; that for `C=CC(=O)Nc1ccc(OC)c(OC(=O)C=C)c1`, over 40%; that for `C=CC(=O)NCc1ccc(Cl)cc1F`, under 40%. Still for that read-out and setting: as for `C=CC(=O)NCc1ccc(Br)cc1F`, the figure is under 40%; as for `C=CC(=O)NCc1ccccc1`, under 40%. On to `C=CC(=O)Nc1ccc(Br)cc1`, for which the inhibition in test [1] was over 40%; in test [6] it was “Active; Inhibition Is Weaker Than Chikv Nsp2Pro”. The molecule also came in with a concentration for half-maximal inhibition (IC50) against Polyprotein P1234 of 1300 µM. Besides, the outcome in test [2] was Active. Also, the Activity in test [4] stood at 17%. The inhibition result in test [5] is “inactive”. Turning to `C=CC(=O)N[C@H](C)c1ccccc1`, the inhibition in test [1] is under 40%. Still for that read-out and setting: the result for `C=CC(=O)NCc1ccc(F)cc1` reads under 40%. Regarding `C=CC(=O)NCc1ccccc1Cl`, the inhibition result in test [5] was “inactive”. Besides, in test [6], the inhibition result is given as “Active; Inhibition Is Weaker Than Chikv Nsp2Pro”. As for `C=CC(=O)Nc1ccc(OC)cc1[N+](=O)[O-]`, the inhibition in test [1] is over 40%.

In test [1], `C=CC(=O)N[C@@H](C)c1ccccc1` yielded an inhibition of under 40%. On the same count and under the same terms, as for `C=CC(=O)NCc1ccc(OC)cc1`, the figure is under 40%.

`C=CC(=O)Nc1ccc(OC)c(OC)c1` came in with an inhibition in test [1] of under 40%.
